Source: patent publication US10307413B2, “Tetrahydro- and dihydro-isoquinoline PRMT5 inhibitors and uses thereof” (Epizyme, Inc., priority 2013, dated 2019)
Like-named read-outs stand apart in the source and are kept apart here.

Experiments:
[1] = test system: symmetric di-methyl arginine in Z-138 cells; assay: Z-138 Methylation Assay (In Cell Western for symmetric di-methyl arginine and DNA content); assay type: cell-based; conditions: Homo sapiens, read-out: ICW EC50
Outline: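 In-cell western: symmetric di-methyl arginine signal ratioed to DRAQ5 DNA content after 96 h compound exposure of Z-138 cells seeded at 50,000 cells/mL.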

Z-138 cell line = assay: Z-138 Proliferation Assay (Cell Titer Glo, 5 days); assay type: cell-based; conditions: Homo sapiens, 120 h, Z-138 cells, 5 days, read-out: Proliferation EC50
Outline: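 Viability via CellTiter-Glo luminescence (ATP) after 5-day incubation at 37 °C, 5% CO2. Compounds tested in triplicate, nine 3-fold steps, highest final concentration 20 μM in 0.2% DMSO; 50% inhibitory concentration by 4-parameter fit of normalized curves.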

PRMT5/MEP50 = PRMT5/MEP50 (Homo sapiens (Human), UniProt O14744); assay: PRMT5 Biochemical Assay (PRMT5/MEP50 enzyme assay on peptide substrate, 3H-SAM Flashplate)
Chain of PRMT5/MEP50 (O14744 other isoform, or with tags, fused parts or gaps): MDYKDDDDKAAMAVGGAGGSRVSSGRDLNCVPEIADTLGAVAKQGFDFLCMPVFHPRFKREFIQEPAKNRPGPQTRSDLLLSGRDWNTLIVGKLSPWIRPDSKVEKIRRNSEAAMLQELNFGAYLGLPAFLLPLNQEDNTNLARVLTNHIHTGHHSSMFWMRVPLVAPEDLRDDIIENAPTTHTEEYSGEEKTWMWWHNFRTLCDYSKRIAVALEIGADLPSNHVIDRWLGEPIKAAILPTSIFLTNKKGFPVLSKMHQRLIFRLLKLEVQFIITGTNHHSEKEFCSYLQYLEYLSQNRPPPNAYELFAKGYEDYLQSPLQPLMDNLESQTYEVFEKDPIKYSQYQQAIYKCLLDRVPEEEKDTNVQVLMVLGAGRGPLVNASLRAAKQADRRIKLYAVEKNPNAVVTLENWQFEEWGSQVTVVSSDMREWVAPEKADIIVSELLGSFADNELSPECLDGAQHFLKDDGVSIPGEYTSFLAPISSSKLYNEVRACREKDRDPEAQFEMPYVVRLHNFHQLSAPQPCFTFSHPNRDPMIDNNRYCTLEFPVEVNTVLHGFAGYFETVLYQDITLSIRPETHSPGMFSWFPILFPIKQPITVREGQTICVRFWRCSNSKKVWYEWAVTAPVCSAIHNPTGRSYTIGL
Chain of PRMT5/MEP50 (Q9BQA1 other isoform, or with tags, fused parts or gaps partner): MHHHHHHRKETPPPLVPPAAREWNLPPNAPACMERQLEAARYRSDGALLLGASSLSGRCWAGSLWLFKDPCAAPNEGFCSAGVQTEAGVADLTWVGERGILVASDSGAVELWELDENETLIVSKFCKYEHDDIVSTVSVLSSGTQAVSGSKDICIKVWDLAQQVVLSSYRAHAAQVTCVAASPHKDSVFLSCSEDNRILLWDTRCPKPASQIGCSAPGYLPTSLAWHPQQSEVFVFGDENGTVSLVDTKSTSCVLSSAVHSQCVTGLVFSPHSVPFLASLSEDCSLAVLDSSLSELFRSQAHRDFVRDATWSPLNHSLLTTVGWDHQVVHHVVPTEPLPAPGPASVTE
Outline: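 Radiometric methylation of a biotin-tagged H4(1-15) peptide by human PRMT5/MEP50 from baculovirus/Sf9, with ³H-SAM incorporation read on streptavidin Flashplates. Buffer: Bicine pH 7.6, TCEP, BSG, Tween20; compound preincubated 30 min at 25 °C; stopped with 600 µM final unlabeled SAM. DMSO and SAH controls; IC50 from fitted % inhibition.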

Row | EC50 [1] [µM] | IC50 (PRMT5/MEP50) [µM] | EC50 ([1]; In Cell Western methylation) [µM] | IC50 (PRMT5/MEP50; PRMT5 biochemical assay) [µM] | SMILES | EC50 (Z-138 cell line) [µM] | EC50 (Z-138 cell line; Cell Titer Glo) [µM]
1 | < 0.1 | < 0.1 | – | – | CC(=O)N1CC(Nc2cc(C(=O)NC[C@H](O)CN3CCc4ccccc4C3)c(C)cn2)C1 [Compound 380] | 0.101 to 1 | –
2 | – | – | 0.101 to 1 | 0.101 to 1 | Nc1cc(C(=O)NC[C@H](O)CN2CCc3ccccc3C2)ncn1 [Compound 429] | – | 10 to 50
3 | – | – | < 0.1 | < 0.1 | CCC(=O)N1CCN(c2nc(NC3COC3)cc(C(=O)NC[C@H](O)CN3CCc4ccccc4C3)n2)CC1 [Compound 462] | – | < 0.1
4 | < 0.1 | < 0.1 | – | – | CC(C)NCCOc1ccc(C(=O)NC[C@H](O)CN2CCc3ccccc3C2)cc1 [Compound 390] | 1 to 10 | –
5 | – | – | < 0.1 | < 0.1 | CC(=O)N1CC(Oc2cc(C(=O)NC[C@H](O)CN3CCc4ccccc4C3)ncn2)C1 [Compound 475] | – | 0.101 to 1
6 | – | – | < 0.1 | < 0.1 | COCCN1CC(Nc2ccnc(C(=O)NC[C@H](O)CN3CCc4ccccc4C3)c2)C1 [Compound 576] | – | 1 to 10
7 | < 0.1 | < 0.1 | – | – | O=C(NC[C@H](O)CN1CCc2ccccc2C1)c1cc(NC2COC2)nc(N2CCOCC2)n1 [Compound 395] | < 0.1 | –
8 | > 1 | 0.101 to 1 | – | – | O=C(NC[C@H](O)CN1CCc2ccccc2C1)c1ccc2cccnc2c1O [Compound 344] | 1 to 10 | –
9 | – | – | < 0.1 | < 0.1 | CC(=O)N1CCC[C@H](Nc2cc(C(=O)NC[C@H](O)CN3CCc4ccccc4C3)ncn2)C1 [Compound 572] | – | 0.101 to 1
10 | – | – | 0.101 to 1 | < 0.1 | CS(=O)(=O)CCNc1cc(C(=O)NC[C@H](O)CN2CCc3ccccc3C2)ncn1 [Compound 555] | – | 1 to 10
11 | – | – | < 0.1 | < 0.1 | CC(C)(C)C(=O)N1CCC(Nc2cc(C(=O)NC[C@H](O)CN3CCc4ccccc4C3)ncn2)CC1 [Compound 410] | – | < 0.1
12 | – | – | < 0.1 | < 0.1 | CC(=O)N1CCC(Nc2cc(C(=O)NC(C)C(O)CN3CCc4ccccc4C3)ncn2)CC1 (stereo not drawn) [Compound 536] | – | 0.101 to 1
13 | – | – | 0.101 to 1 | < 0.1 | COC(CNC(=O)c1cc(NC2CCN(C(=O)C3CC3)CC2)ncn1)CN1CCc2ccccc2C1 (stereo not drawn) [Compound 553] | – | > 5
14 | – | – | < 0.1 | < 0.1 | CCC(=O)N1CC(Nc2cc(C(=O)NC[C@H](O)CN3CCc4ccccc4C3)ccn2)C1 [Compound 488] | – | < 0.1
15 | – | – | < 0.1 | < 0.1 | CN(C)C(=O)[C@H]1CC[C@@H](Nc2cc(C(=O)NC[C@H](O)CN3CCc4ccccc4C3)ncn2)CC1 [Compound 598] | – | 1 to 10
16 | < 0.1 | < 0.1 | – | – | Cc1cnc(OC2CCOCC2)cc1C(=O)NC[C@H](O)CN1CCc2ccccc2C1 [Compound 309] | 1 to 10 | –
17 | – | – | > 1 | 0.101 to 1 | O=C(NC[C@H](O)CN1CCc2ccccc2C1)C1=CC2=N[C@@H](CO)CN2C=N1 [Compound 634] | – | > 5
18 | 0.101 to 1 | < 0.1 | – | – | CN(C)CCNc1cc(C(=O)NC[C@H](O)CN2CCc3ccccc3C2)ncn1 [Compound 353] | 10 to 50 | –
19 | – | – | < 0.1 | < 0.1 | CO[C@H]1C[C@H](Nc2cc(C(=O)NC[C@H](O)CN3CCc4ccccc4C3)ncn2)C1 [Compound 559] | – | 0.101 to 1
20 | – | – | 0.101 to 1 | 0.101 to 1 | CC(=O)N1CCC(Nc2cc(C(=O)NC[C@H](O)CN3CCc4ccccc4C3(C)C)ncn2)CC1 [Compound 606] | – | > 5
21 | – | – | < 0.1 | < 0.1 | O=C(NC[C@H](O)CN1CCc2ccccc2C1)c1cc(N[C@H]2CC[C@@H](O)CC2)ncn1 [Compound 592] | – | 0.101 to 1
22 | – | – | > 1 | 1 to 10 | COC(CNC(=O)c1cc(NC2COC2)ncn1)CN1CCc2ccccc2C1 (stereo not drawn) [Compound 523] | – | > 5
23 | – | – | < 0.1 | < 0.1 | O=C(NC[C@H](O)CN1CCc2ccccc2C1)c1cnnc(NC2CCOCC2)c1 [Compound 693] | – | 0.101 to 1
24 | – | – | < 0.1 | < 0.1 | CSCCN1CCC(Nc2cc(C(=O)NC[C@H](O)CN3CCc4ccccc4C3)ncn2)CC1 [Compound 639] | – | 1 to 10
25 | – | – | < 0.1 | < 0.1 | NC(=O)[C@H]1CC[C@H](Nc2cc(C(=O)NC[C@H](O)CN3CCc4ccccc4C3)ncn2)CC1 [Compound 601] | – | 0.101 to 1
26 | < 0.1 | 0.101 to 1 | – | – | NCCOc1ccc2cc(C(=O)NC[C@H](O)CN3CCc4ccccc4C3)ccc2c1 [Compound 360] | 1 to 10 | –

Row | EC50 [1] [µM] | IC50 (PRMT5/MEP50) [µM] | EC50 ([1]; In Cell Western methylation) [µM] | IC50 (PRMT5/MEP50; PRMT5 biochemical assay) [µM] | SMILES | EC50 (Z-138 cell line) [µM] | EC50 (Z-138 cell line; Cell Titer Glo) [µM]
27 | < 0.1 | < 0.1 | – | – | CN(C)CCCNc1cc(C(=O)NC[C@H](O)CN2CCc3ccccc3C2)ncn1 [Compound 354] | 1 to 10 | –
28 | – | – | < 0.1 | < 0.1 | CC(C)CC(=O)N1CC(Nc2cc(C(=O)NC[C@H](O)CN3CCc4ccccc4C3)ncn2)C1 [Compound 417] | – | < 0.1
29 | – | – | < 0.1 | < 0.1 | CCS(=O)(=O)CCNc1cc(C(=O)NC[C@H](O)CN2CCc3ccccc3C2)ncn1 [Compound 641] | – | 1 to 10
30 | – | – | < 0.1 | < 0.1 | CC(C)C(=O)N1CC(Nc2cc(C(=O)NC[C@H](O)CN3CCc4ccccc4C3)ncn2)C1 [Compound 416] | – | < 0.1
31 | – | – | < 0.1 | < 0.1 | CS(=O)(=O)CCN1CCC(Nc2cc(C(=O)NC[C@H](O)CN3CCc4ccccc4C3)ncn2)CC1 [Compound 569] | – | 0.101 to 1
32 | – | – | < 0.1 | < 0.1 | O=C(NC[C@H](O)CN1CCc2ccccc2C1)c1ccnc(NC2CN(C(=O)C3CCC3)C2)c1 [Compound 530] | – | < 0.1
33 | – | – | < 0.1 | < 0.1 | CC(=O)N1CCC(Nc2cc(C(=O)NC[C@H](O)CN3CCc4ccccc4C3)cc(N3CCN(C)CC3)n2)CC1 [Compound 612] | – | < 0.1
34 | – | – | < 0.1 | < 0.1 | CC(C)Cc1nc(NC2COC2)cc(C(=O)NC[C@H](O)CN2CCc3ccccc3C2)n1 [Compound 464] | – | < 0.1
35 | – | – | < 0.1 | < 0.1 | O=C(NC[C@H](O)CN1CCc2ccccc2C1)c1cc(NC2CN(C(=O)C3CC3)C2)ccn1 [Compound 636] | – | < 0.1
36 | < 0.1 | < 0.1 | – | – | CCNCCOc1ccc(C(=O)NC[C@H](O)CN2CCc3ccccc3C2)cc1 [Compound 391] | 1 to 10 | –
37 | – | – | < 0.1 | < 0.1 | COc1nc(NC2COC2)cc(C(=O)NC[C@H](O)CN2CCc3ccccc3C2)n1 [Compound 465] | – | 0.101 to 1
38 | – | – | < 0.1 | < 0.1 | Cc1cc(Nc2cc(C(=O)NC[C@H](O)CN3CCc4ccccc4C3)ccn2)n[nH]1 [Compound 433] | – | 1 to 10
39 | < 0.1 | < 0.1 | – | – | O=C(NC[C@H](O)CN1CCc2ccccc2C1)c1cccc2ccccc12 [Compound 295] | 1 to 10 | –
40 | – | – | < 0.1 | < 0.1 | CC(=O)N[C@H]1CC[C@@H](Nc2cc(C(=O)NC[C@H](O)CN3CCc4ccccc4C3)ncn2)CC1 [Compound 590] | – | 0.101 to 1
41 | < 0.1 | < 0.1 | – | – | CN1CCN(c2nc(NC3COC3)cc(C(=O)NC[C@H](O)CN3CCc4ccccc4C3)n2)CC1 [Compound 394] | < 0.1 | –
42 | – | – | > 1 | 0.101 to 1 | CC(=O)N1CCC(Nc2cc(C(=O)NCC(O)C(C)N3CCc4ccccc4C3)ncn2)CC1 (stereo not drawn) [Compound 609] | – | > 5
43 | < 0.1 | < 0.1 | – | – | CN(C[C@H](O)CN1CCc2ccccc2C1)C(=O)c1cc(N(C)C2CCOCC2)ncn1 [Compound 313] | 1 to 10 | –
44 | < 0.1 | < 0.1 | – | – | CC(C)N(C)CCOc1ccc(C(=O)NC[C@H](O)CN2CCc3ccccc3C2)cc1 [Compound 389] | 1 to 10 | –
45 | – | – | < 0.1 | < 0.1 | O=C(NC[C@H](O)CN1CCc2ccccc2C1)c1cnnc(NC2COC2)c1 [Compound 545] | – | 1 to 10
46 | 1 to 10 | 0.101 to 1 | – | – | CNCCOc1cccc(C(=O)NCC(O)CN2CCc3ccccc3C2)c1 (stereo not drawn) [Compound 39] | > 20 | –
47 | – | – | < 0.1 | < 0.1 | CC(C)C(=O)N1CCC(Nc2cc(C(=O)NC[C@H](O)CN3CCc4ccccc4C3)ncn2)CC1 [Compound 408] | – | < 0.1
48 | – | – | < 0.1 | < 0.1 | COCCN(C)c1cc(C(=O)NC[C@H](O)CN2CCc3ccccc3C2)cc(NC2CCN(C(C)=O)CC2)n1 [Compound 614] | – | < 0.1
49 | – | – | 0.101 to 1 | < 0.1 | COc1nc(NC2CNC2)cc(C(=O)NC[C@H](O)CN2CCc3ccccc3C2)n1 [Compound 501] | – | 1 to 10
50 | – | – | 0.101 to 1 | < 0.1 | CC(=O)N1CC(Nc2cc(C(=O)NC[C@H](O)CN3CCc4ccccc4C3)cnn2)C1 [Compound 629] | – | 1 to 10
51 | – | – | < 0.1 | < 0.1 | CNCCN(C)c1nc(NC2COC2)cc(C(=O)NC[C@H](O)CN2CCc3ccccc3C2)n1 [Compound 476] | – | 0.101 to 1
